The results in this text go back to patent US20110245104A1, “Method for screening the sensitizing properties of chemical compounds” (priority 2010, published 2011).

In test [1] the test system is anti-nuclear antibodies (ANA). Briefly: Anti-nuclear antibodies (ANA) in sera of mice topically exposed to haptens. It counts as in vivo. The note with it: topical exposure.
Test [2] concerns human skin excerpts. As to the kind of experiment: Labeling of human skin excerpts by caged haptens. The source says:
The first step is that the molecules come into contact with the skin (the stratum corneum). Many of the reactive molecules react in the stratum corneum, something that can be seen in experiments with human skin excerpts and the caged (mBBr and dBBr) haptens. However, a significant proportion of the molecules penetrate further down to the suprabasal layers of the epidermis but also the follicular pathway is of importance for bringing xenobiotics into the skin. It is likely that the penetration is due both to the acidic pH of the stratum corneum (the molecules react more slowly when the pH is low), but also because many of the available groups have reacted. In the suprabasal layers, the haptens have a hard time penetrating the cells, as the cornification of the cells creates a thick, relatively impermeable envelope around the suprabasal cells. Consequently, the haptens penetrate down to the basal layer. Here, the cell membrane is much thinner and more fluidic and the molecules can thus enter the basal cells.

For test [3], the system named is serum amyloid P component (SAP). Briefly: Serum amyloid P component (SAP) in sera of mice exposed to sensitizers. It counts as in vivo. Particulars: sera of mice exposed to sensitizer.
Test [4] concerns keratins. Briefly: Protein cross-linking by bidentate haptens (SDS gels of blebs). Format: cell-based, human. The note with it: bidentate hapten. The source says: In SDS-PAGE experiments it was shown that thiol-, amine-, and arginine-reactive sensitizers give rise to blebs that contain the same proteins. […] It was also shown that the sensitizing compounds also modify other proteins and that these proteins are released in blebs, as visualized by fluorescent bands on SDS-gels.

On to `Cc1c(CBr)n2c(CBr)c(C)c(=O)n2c1=O` [dBBr, dibromobimane], for which, in test [1], the “Level of anti-nuclear antibodies (ANA) in sera” value is reported as “increased levels”. For the same molecule, the “Labeling of cells in the basal layer” value in test [2] is recorded as “cells in the basal layer are labeled”. In addition, the “Level of serum amyloid P component (SAP)” value in test [3] is “increased levels”. Moreover, the Cross-links between keratins result in test [4] is “cause cross-links”.
